A short description of series [1]: Oral non-human primate crossover PK study (Example 7). To be noted: both micronized and non-micronized form; cynomolgus monkeys, single PO capsule. It is filed as in vivo, cynomolgus monkeys. An excerpt:
An objective of this study is to determine the Pharmacokinetic (PK) profile of the Test Article following a single oral administration to four male non-human primate cynomolgus monkeys with one (1) week wash out periods.
Four male animals are used for this study, and the four study animals are used for each of three dosing phases with one-week washout periods. Food is withheld overnight prior to dose administration, and food is returned four hours post-dose administration. Water is provided ad libitum by automatic watering device. Two of the four animals are previously treated with Compound 1, and the other two are Compound 1 naive. Test Article (M-3, N-3, or K-13) are provided as capsulized powders; stored at room temperature protected from light in, for example, a polyolefin bottle.

Series [2] is described as follows: Solid-state stability by HPLC and XRPD. It is filed as physicochemical. To be noted: after 4 weeks. The procedure:
Solid-state stability of the fumarate salt of Compound 1 was assessed after storage at the following conditions for 2 and 4 weeks by HPLC and XRPD: 40° C./75% RH (opened); and 50° C./ambient RH (closed). […] Solid-state stability of Compound 1 and seven salts of Compound 1, as in Example 8, was assessed after storage at the following conditions for 2 and 4 weeks by HPLC and PXRD: 40° C./75% RH (opened); and 50° C./ambient RH (closed). HPLC for IDR and solid-state stability analyses were conducted with an Agilent 1260 Infinity system equipped with a G1311B Quad pump, […] Autosampler, G1330B auto-sampler thermostat, G1316A Thermostatted Column Compartment with a column switch valve, and […] diode array detector.

A short description of series [3]: Gravimetric vapor sorption (GVS). It counts as physicochemical. How it is done: Selected physicochemical data of Form B were collected. Hemi-fumarate salt Form B was determined to be crystalline by polarized-light microscopy (PLM) and XRPD. […] (ΔH=1.7 J/g), followed immediately by a sharp endotherm at 199.6° C. […] (see FIG. 7). Proton NMR confirmed a hemi-salt with 0.5:1 CI:API ratio. […] No change in the XRPD pattern was observed post GVS.
GVS experiments were conducted on a Surface Measurement Systems DVS-Advantage. The experiments were performed at 25° C. The instrument was operated in step mode and the relative humidity was increased in 10% RH increments from 40% RH to 75% RH, then decreased from 75% RH to 5% RH, then increased a second time from 5% RH to 95% RH, then decreased from 95% RH to 5% RH. The mass equilibrium criterion was set at 0.003% change in mass over time (dm/dt). A minimum step time of 20 minutes and a maximum step time of 240 minutes were specified.

The nature of series [4]: Intrinsic dissolution rate and solubility in 0.1 N HCl with 1% Tween 80 (USP <1087>). It is filed as physicochemical. To be noted: for Intrinsic Dissolution Rate IDR: paddle 100 rpm, die surface 0.5 cm^2. How it is done: The intrinsic dissolution rate was determined by forming compacted pellets of approximately 75 mg of API using a compression force of 1200 pounds of force, and each pellet (die surface area: 0.5 cm^2) was immersed into a flat bottom vessel containing 500 mL of medium (aqueous 0.1 N HCl with 1% Tween 80 (polyoxyethylene (20) sorbitan monooleate)), using a Distek 2100A dissolution bath, and Distek Circulator/heater (set to 37° C.), with a paddle speed of 100 rpm. An aliquot of the sample (1 mL) was pulled from dissolution media at 15, 30, 45, 60, 75, 90, 105, and 120 minutes, filtered, and analyzed by HPLC. The slope of the dissolution profile corresponded to an intrinsic dissolution rate of hemi-fumarate salt Form B of 6.2 μg/(min·cm^2) as compared to 8.9 μg/(min·cm^2) for Compound 1 (free base). Determination of intrinsic dissolution rate (IDR) was performed for Compound 1 and seven different salts of Compound 1 according to USP <1087> in 0.1 N hydrochloric acid with 1% Tween 80 (Polyoxyethylene […] sorbitan monooleate). Compacted pellets containing approximately 75 mg API were prepared using a compression force of 1200 pounds of force, and each pellet (die surface area: 0.5 cm^2) was immersed into a flat bottom vessel containing 500 mL of medium, using a Distek 2100A dissolution bath, and Distek Circulator/heater (set to 37° C.), with a paddle speed of 100 rpm. An aliquot of the sample (1 mL) was pulled from dissolution media at 15, 30, 45, 60, 75, 90, 105, and 120 minutes, filtered, and analyzed by HPLC. HPLC for IDR and solid-state stability analyses were conducted with an Agilent 1260 Infinity system equipped with a G1311B Quad pump, […] Autosampler, G1330B auto-sampler thermostat, G1316A Thermostatted Column Compartment with a column switch valve, and […] diode array detector.

Series [5] is described as follows: Pharmacokinetic analysis of Compound 1 and its salts after oral capsule administration (Example 4). It counts as in vivo, cynomolgus monkeys. To be noted: single PO capsule, 30 mg/kg. The procedure: A pharmacokinetic analysis was performed comparing administration of Compound 1 with certain salts of Compound 1 after oral (PO) administration in 3 male cynomolgus monkeys. The subjects received a single PO oral gavage of active pharmaceutical ingredient (API) (e.g., Compound 1 fumarate, Compound 1 sulfate, Compound 1 hydrochloride, Compound 1 phosphate, Compound 1 tosylate, Compound 1 malonate, Compound 1 maleate, or Compound 1 free base) in a capsule at a dose of 30 mg/kg. Following dose administration, the animals were flushed with approximately 10 milliliters of tap water to ensure all API was administered. Animals were observed twice daily and at sample collection time-points for any abnormal clinical and behavioral signs. Body weights were taken prior to dosing and weekly thereafter until study termination. Blood samples (0.5 mL) were collected pre-dose, 15 minutes, 30 minutes, and 1, 2, 4, 6, 8, 10, 12, and 24 hours post-dose. Each blood sample was collected from the monkey's femoral, saphenous or other available vein via direct venipuncture, placed into a polypropylene tube containing K2EDTA as the anticoagulant, and gently inverted several times to mix. The blood samples were kept on wet ice until centrifugation. Blood was centrifuged within 10 minutes of collection. The samples were centrifuged at a temperature of 4° C., at 3,000 g, for 5 minutes. The resulting plasma (˜0.25 mL) was divided into two equal aliquots (125 μL each) into polypropylene tubes, designated as Set A and Set B, after centrifugation. Plasma samples designated for certain metabolites (Set A) were treated with 12.5 μL of 2 M ascorbic acid (plasma: ascorbic acid=[…], v:v) prepared beforehand by combining 0.352 g of ascorbic acid into 1 mL of sterile water in a glass vial and mixing thoroughly. […] Once plasma was prepared, the samples were snap frozen on dry ice. All plasma samples were stored frozen below −70° C. until analyzed.

Where [6] appears, read: 0.1 N HCl with 1% Tween 80, 37° C., 500 mL, pellet about 75 mg.
The mark [7] stands for this setting: 3 male cynomolgus monkeys, plasma Compound 1.

Structures are written as SMILES. Structures can show the parent of a compound that is named as a salt.

As a reminder, the Cmax is the maximum level reached in the sampled fluid or tissue. The Tmax is the time at which the peak concentration occurs. One may read the AUC(0-t) as exposure summed from dosing to a finite time, without extrapolation to infinity. `[2H]C([2H])([2H])C(c1cc2nnc(-c3cc(F)ccc3F)n2nc1OCc1ncnn1C)(C([2H])([2H])[2H])C([2H])([2H])[2H]` [Fumarate Salt, 3-(2,5-difluorophenyl)-7-[1,1-di(methyl-d3)ethyl-2,2,2-d3]-6-[(1-methyl-1H-1,2,4-triazol-5-yl)methoxy]-1,2,4-triazolo[4,3-b]pyridazine]: in series [1], the “exposure to Compound 1 as compared to subjects dosed with the free base” value was “superior exposure”. Moreover, in series [2] (40° C./75% RH (opened) and 50° C./ambient RH (closed)), the “Solid-state stability by HPLC or XRPD” value is recorded as “No significant changes”. Moreover, in series [3] (after GVS), the “XRPD pattern post GVS” value was “No change”. Further, the “moisture uptake (GVS)” value in series [3] (between 5-95% RH, 25° C.) was less than 0.1 % wt. In series [4] (setting [6]), the “Solubility, time point 15 min” value turned out to be 0.342 µg/mL and the “Solubility, time point 120 min” value was found to be 0.993 µg/mL. The “Solubility, time point 30 min” value in series [4] (0.1 N HCl with 1% Tween 80, 37° C., 500 mL, pellet about 75 mg, 30 min) came to 0.404 µg/mL. Besides, in series [4] (0.1 N HCl with 1% Tween 80, 37° C., 500 mL, pellet about 75 mg, 45 min), the “Solubility, time point 45 min” value came to 0.46 µg/mL. Further, the “Solubility, time point 60 min” value in series [4] (0.1 N HCl with 1% Tween 80, 37° C., 500 mL, pellet about 75 mg, 60 min) turned out to be 0.576 µg/mL. Besides, the “Solubility, time point 75 min” value in series [4] (0.1 N HCl with 1% Tween 80, 37° C., 500 mL, pellet about 75 mg, 75 min) was 0.684 µg/mL. Also, the “Solubility, time point 90 min” value in series [4] (0.1 N HCl with 1% Tween 80, 37° C., 500 mL, pellet about 75 mg, 90 min) was found to be 0.79 µg/mL. Besides, in series [4] (0.1 N HCl with 1% Tween 80, 37° C., 500 mL, pellet about 75 mg, 105 min), the “Solubility, time point 105 min” value came to 0.87 µg/mL. Also, the “Intrinsic Dissolution Rate IDR” value in series [4] (0.1 N HCl with 1% Tween 80, 37° C.) is 6.2 μg/(min · cm^2). For the same molecule, in series [4] (0.1 N HCl with 1% Tween 80, 37° C., listed as hemi-fumarate salt Form B), the “Intrinsic Dissolution Rate IDR” value is 6.2 μg/(min · cm^2). Further, the “Solubility, Cumulative” value in series [4] (sum of the 15-120 min time points, 0.1 N HCl with 1% Tween 80, 37° C.) was found to be 5.119 µg/mL. For the same molecule, in series [5] (setting [7]), the Cmax worked out at 3080 ng/mL and the Tmax was 4.7 h. The Cmax result in series [5] (3 male cynomolgus monkeys, plasma Compound 1, listed as fumarate salt of Compound 1, 30 mg/kg) was “about 3080 ng/mL”. Further, in series [5] (male cynomolgus monkeys), the “AUClast higher than that of Compound 1” value is “over 50%” and the “Cmax higher than that of Compound 1 (free base)” value was “over 98%”. In series [5] (male, cynomolgus monkey, plasma, po, male cynomolgus monkeys), the AUC(0-t) is 38900 ng·h/mL.

As a reminder, the solubility is the concentration that dissolves in the medium under given conditions. `[2H]C([2H])([2H])C(c1cc2nnc(-c3cc(F)ccc3F)n2nc1OCc1ncnn1C)(C([2H])([2H])[2H])C([2H])([2H])[2H]` [Hydrochloride Salt, 3-(2,5-difluorophenyl)-7-[1,1-di(methyl-d3)ethyl-2,2,2-d3]-6-[(1-methyl-1H-1,2,4-triazol-5-yl)methoxy]-1,2,4-triazolo[4,3-b]pyridazine]: the “Solid-state stability, XRPD pattern” value in series [2] (40° C./75% RH) was “small signal at 10° 2θ of Compound 1 (free base)”. For the same molecule, in series [4] (setting [6]), the “Solubility, time point 15 min” value was determined as 0.452 µg/mL and the “Solubility, time point 120 min” value came out at 1.13 µg/mL. Besides, the “Intrinsic Dissolution Rate IDR” value in series [4] (0.1 N HCl with 1% Tween 80, 37° C., listed as HCl Salt) is 6.9 μg/(min · cm^2). Also, the solubility at 30 min in series [4] (0.1 N HCl with 1% Tween 80, 37 °C, aqueous with cosolvent or surfactant or cyclodextrin, 500 mL, pellet about 75 mg, 30 min, read-out: Solubility, time point 30 min) worked out at 0.358 µg/mL. The solubility at 45 min in series [4] (0.1 N HCl with 1% Tween 80, 37 °C, aqueous with cosolvent or surfactant or cyclodextrin, 500 mL, pellet about 75 mg, 45 min, read-out: Solubility, time point 45 min) is 0.561 µg/mL. Besides, the solubility at 60 min in series [4] (0.1 N HCl with 1% Tween 80, 37 °C, aqueous with cosolvent or surfactant or cyclodextrin, 500 mL, pellet about 75 mg, 60 min, read-out: Solubility, time point 60 min) amounted to 0.59 µg/mL. In addition, the solubility at 75 min in series [4] (0.1 N HCl with 1% Tween 80, 37 °C, aqueous with cosolvent or surfactant or cyclodextrin, 500 mL, pellet about 75 mg, 75 min, read-out: Solubility, time point 75 min) turned out to be 0.723 µg/mL. In addition, in series [4] (0.1 N HCl with 1% Tween 80, 37 °C, aqueous with cosolvent or surfactant or cyclodextrin, 500 mL, pellet about 75 mg, 90 min, read-out: Solubility, time point 90 min), the solubility at 90 min is 0.847 µg/mL. Besides, the solubility at 105 min in series [4] (0.1 N HCl with 1% Tween 80, 37 °C, aqueous with cosolvent or surfactant or cyclodextrin, 500 mL, pellet about 75 mg, 105 min, read-out: Solubility, time point 105 min) turned out to be 0.989 µg/mL. The solubility in series [4] (0.1 N HCl with 1% Tween 80, 37 °C, aqueous with cosolvent or surfactant or cyclodextrin, sum of the 15-120 min time points, read-out: Solubility, Cumulative) amounted to 5.65 µg/mL. For the same molecule, in series [5] (setting [7]), the AUClast amounted to 25402 ng·h/mL, the maximum concentration (Cmax) was determined as 1583 ng/mL and the Tmax was 4.0 h.
